Reference: paper PMC5011342, “A high throughput drug screening assay to identify compounds that promote oligodendrocyte differentiation using acutely dissociated and purified oligodendrocyte precursor cells” (BMC Research Notes, 2016)
Where two headings read alike, the source gives them in different places. Values belong to the molecule of their own block, whether it stands above or below them.

Columns and labels:
Mouse OPCs = settings: ● = hit reported; cited from earlier work
[1] = test system: acutely dissociated and purified rat OPCs; assay: Acute OL differentiation assay (MBP expression/cell, immunofluorescent image quantification); assay type: cell-based; settings: for activation at 2 µM / activation at 10 µM / EC50 / activation at 0.08 µM / activation at 0.4 µM: Rattus norvegicus; for activation at 2 µM / activation at 10 µM / activation at 0.08 µM / activation at 0.4 µM: relative to quetiapine, sheet "All OLga data"; for EC50: average EC50 for induction of OL differentiation from independent biological replicates, eight concentrations; for hit in OL differentiation assay, MRF-TMC: ● = confirmed hit in this paper's assay; for activation at 0.08 µM: test compound at 0.08 uM, read-out: 0.08 uM (% Quet)
Procedure, shortened: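 Oligodendrocyte precursor cells were enriched from P6-P7 Sprague–Dawley rat brains by immunopanning (RAN-2 and GalC depletion, O4 selection), plated at 5000 cells/well in serum-free, mitogen-free differentiation media on PDL/laminin 96-well view plates, centrifuged at 200×g, and pre-incubated 1–2 h before test compounds were added in quadruplicate. On DIV4, cells were fixed, stained for MBP and DAPI, imaged automatically, and MBP expression per cell was quantified.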

expanded OPCs = assay: cells; settings: for viability at 0.1 µM / viability at 1 µM / viability at 10 µM: Rattus norvegicus, 72 h; for 0.1 µM (% DMSO) / 1 µM (% DMSO) / 10 µM (% DMSO): alamarBlue viability of expanded OPCs, relative to DMSO control; for 0.1 µM (% DMSO): compound at 0.1 µM; for 1 µM (% DMSO): compound at 1 µM; for 10 µM (% DMSO): compound at 10 µM
Procedure, shortened: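 Expanded OPCs seeded at 10,000 cells/well in differentiation media, then exposed to NCC library compounds at 10, 1 and 0.1 µM (quadruplicate, 0.1% DMSO) for three days. Viability read as alamarBlue fluorescence (560/590 nm) after 4 h at 37 °C; tunicamycin 5 ng/ml served as toxicity control.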

Rat OPCs, Mouse OPCs = settings: ● = hit reported; cited from earlier work
[2] = in vivo models; cited from earlier work
Rat OPCs = settings: ● = hit reported; cited from earlier work
[3] = 2 uM test compound, read-out: OL differentiation, 2 uM (% Quet)
[4] = read-out: 0.1 µM (% DMSO), alamarBlue viability of expanded OPCs, compound at 0.1 µM, sheet All Tox data
[5] = read-out: 1 µM (% DMSO), alamarBlue viability of expanded OPCs, compound at 1 µM, sheet All Tox data
[6] = read-out: 10 µM (% DMSO), alamarBlue viability of expanded OPCs, compound at 10 µM, sheet All Tox data
[7] = test compound at 0.4 uM, NCC library screen, read-out: 0.4 uM (% Quet)
[8] = read-out: 0.1 µM (% DMSO), alamarBlue viability, NCC library compound at 0.1 µM, sheet "All Tox data"
[9] = read-out: 1 µM (% DMSO), alamarBlue viability, NCC library compound at 1 µM, sheet "All Tox data"
[10] = read-out: 10 µM (% DMSO), alamarBlue viability, NCC library compound at 10 µM, sheet "All Tox data"
[11] = test compound at 2 uM, NCC library screen, read-out: 2 uM (% Quet)

SMILES: O[C@@H]1CCCC[C@H]1N1CCC(c2ccccc2)CC1 (racemic) [Vesamicol, reference compound]
hit in OL differentiation assay, Najm (Mouse OPCs): ●
activation at 2 µM [1, 3]: 80.7%
activation at 10 µM ([1]; 10 uM test compound, read-out: OL differentiation, 10 uM (% Quet)): 151%
EC50 [1]: 1400 nM
hit in OL differentiation assay, MRF-TMC [1]: ●
viability at 0.1 µM (expanded OPCs; [4]): 94.3%
viability at 1 µM (expanded OPCs; [5]): 120%
viability at 10 µM (expanded OPCs; [6]): 146%

SMILES: CN1[C@@H]2CC[C@H]1C[C@@H](OC(c1ccccc1)c1ccccc1)C2 [Benztropine]
hit in OL differentiation assay, Mei (Rat OPCs, Mouse OPCs): ●
hit in OL differentiation assay, Najm (Mouse OPCs): ●
stimulating remyelination [2]: efficacy in stimulating remyelination
hit in OL differentiation assay, Deshmukh (Rat OPCs): ●
hit in OL differentiation assay, MRF-TMC [1]: ●

SMILES: CN1CCC[C@@H]1CCO[C@](C)(c1ccccc1)c1ccc(Cl)cc1 [Clemastine]
hit in OL differentiation assay, Mei (Rat OPCs, Mouse OPCs): ●
stimulating remyelination [2]: efficacy in stimulating remyelination
hit in OL differentiation assay, Deshmukh (Rat OPCs): ●
promotion of OL differentiation (in words) ([1]; MBP expression versus 0.1 % DMSO negative control): could promote OL differentiation in our assay similar to benztropine
hit in OL differentiation assay, MRF-TMC [1]: ●

SMILES: OCCN1CCN(CCCN2c3ccccc3Sc3ccc(C(F)(F)F)cc32)CC1 [Fluphenazine, reference compound]
hit in OL differentiation assay, Deshmukh (Rat OPCs): ●
activation at 0.08 µM ([1]; NCC library screen): 92.6%
activation at 0.4 µM [1, 7]: -2.7%
hit in OL differentiation assay, MRF-TMC [1]: ●
viability at 0.1 µM (expanded OPCs; [8]): 159%
viability at 1 µM (expanded OPCs; [9]): 46.8%
viability at 10 µM (expanded OPCs; [10]): 9.6%

SMILES: CC(C)[N+]1(C)[C@@H]2CC[C@H]1C[C@@H](OC(=O)C(CO)c1ccccc1)C2 (stereo partly drawn) [Ipatropium, reference compound]
hit in OL differentiation assay, Mei (Rat OPCs, Mouse OPCs): ●
hit in OL differentiation assay, Deshmukh (Rat OPCs): ●
activation at 2 µM [1, 11]: 21.2%
activation at 10 µM ([1]; test compound at 10 uM, NCC library screen, read-out: 10 uM (% Quet)): 38.6%
EC50 [1]: 8500 nM
hit in OL differentiation assay, MRF-TMC [1]: ●
viability at 0.1 µM (expanded OPCs; [8]): 92.6%
viability at 1 µM (expanded OPCs; [9]): 101%
viability at 10 µM (expanded OPCs; [10]): 123%

SMILES: CCN(CC)CC#CCOC(=O)C(O)(c1ccccc1)C1CCCCC1 (stereo not drawn) [Oxybutynin, reference compound]
hit in OL differentiation assay, Mei (Rat OPCs, Mouse OPCs): ●
hit in OL differentiation assay, Deshmukh (Rat OPCs): ●
activation at 2 µM [1, 11]: 91.6%
hit in OL differentiation assay, MRF-TMC [1]: ●
0.1 µM (% DMSO) (expanded OPCs): 129.9 % DMSO
1 µM (% DMSO) (expanded OPCs): 169.5 % DMSO
10 µM (% DMSO) (expanded OPCs): 57.5 % DMSO

EC50 [1]: 100 nM
SMILES: OCCN1CCN(CCCN2c3ccccc3Sc3ccc(Cl)cc32)CC1 [Perphenazine, reference compound]
hit in OL differentiation assay, Deshmukh (Rat OPCs): ●
activation at 0.08 µM ([1]; NCC library screen): 95.7%
activation at 0.4 µM [1, 7]: 79%
hit in OL differentiation assay, MRF-TMC [1]: ●
0.1 µM (% DMSO) (expanded OPCs): 154.3 % DMSO
1 µM (% DMSO) (expanded OPCs): 47.1 % DMSO
10 µM (% DMSO) (expanded OPCs): 9.2 % DMSO

SMILES: OCCOCCN1CCN(C2=Nc3ccccc3Sc3ccccc32)CC1 [Quetiapine]
hit in OL differentiation assay, Mei (Rat OPCs, Mouse OPCs): ●
hit in OL differentiation assay, Najm (Mouse OPCs): ●
hit in OL differentiation assay, MRF-TMC [1]: ●

EC50 [1]: 400 nM
SMILES: OCc1cc(C(O)CNCCCCCCOCCCCc2ccccc2)ccc1O (stereo not drawn) [Salmeterol, reference compound]
hit in OL differentiation assay, Deshmukh (Rat OPCs): ●
activation at 0.4 µM [1, 7]: 55.3%
activation at 2 µM [1, 11]: -32.4%
hit in OL differentiation assay, MRF-TMC [1]: ●
viability at 0.1 µM (expanded OPCs; [8]): 115%
viability at 1 µM (expanded OPCs; [9]): 108%
viability at 10 µM (expanded OPCs; [10]): 9.3%

SMILES: CC/C(=C(\c1ccccc1)c1ccc(OCCN(C)C)cc1)c1ccccc1 [Tamoxifen, reference compound]
hit in OL differentiation assay, Najm (Mouse OPCs): ●
activation at 0.08 µM ([1]; NCC library screen): 117%
activation at 0.4 µM [1, 7]: -49.8%
hit in OL differentiation assay, MRF-TMC [1]: ●
0.1 µM (% DMSO) (expanded OPCs): 162.2 % DMSO
1 µM (% DMSO) (expanded OPCs): 55.1 % DMSO
10 µM (% DMSO) (expanded OPCs): 9.5 % DMSO

EC50 [1]: 200 nM
SMILES: CN1CCN(CCCN2c3ccccc3Sc3ccc(C(F)(F)F)cc32)CC1 [Trifluoperazine, reference compound]
hit in OL differentiation assay, Deshmukh (Rat OPCs): ●
activation at 0.4 µM ([1]; 0.4 uM test compound, read-out: OL differentiation, 0.4 uM (% Quet)): 155%
activation at 2 µM [1, 3]: -103%
hit in OL differentiation assay, MRF-TMC [1]: ●
viability at 0.1 µM (expanded OPCs; [4]): 116%
viability at 1 µM (expanded OPCs; [5]): 85.8%
viability at 10 µM (expanded OPCs; [6]): 11.3%
